Reference: patent US20250312258A1, “2,3-PYRROLIDINEDIONE CONJUGATES AND METHODS OF USING THEREOF” (North Carolina State University, priority 2022, published 2025)
≈ marks a conversion by molar mass, not a printed value. Like-named read-outs stand apart in the source and are kept apart here.

How the values were obtained:
[1] = system: S. aureus 25923; assay: Broth microdilution MIC, S. aureus 25923; format: cell-based, Staphylococcus aureus; conditions: Staphylococcus aureus, 25923; read-out: MIC (S. aureus 25923)
[2] = system: S. aureus 29213; assay: Broth microdilution MIC, S. aureus 29213; format: cell-based, Staphylococcus aureus; conditions: Staphylococcus aureus
[3] = system: MRSA 33591; assay: Broth microdilution MIC, MRSA 33591; format: cell-based; conditions: Staphylococcus aureus, read-out: MIC (MRSA 33591)
[4] = system: VRSA; assay: MIC against VRSA (Table 2); format: cell-based; conditions: Staphylococcus aureus, read-out: MIC (VRSA)
[5] = system: VRSA; assay: MIC against VRSA strain panel (VRS/NRS strains); format: cell-based; conditions: Staphylococcus aureus, read-out: MIC
[6] = system: VRE; assay: MIC / in vitro activity against VRE strain panel; format: cell-based, Enterococcus spp.; conditions: Enterococcus, VRE, read-out: MIC
[7] = system: MRSA; assay: MIC against MRSA strain panel; format: cell-based; conditions: Staphylococcus aureus, the 4th table, read-out: MIC
[8] = system: MSSA; assay: MIC against MSSA strain panel; format: cell-based; conditions: Staphylococcus aureus, the 4th table, read-out: MIC

CCC1C(c2ccc(C(F)(F)F)cc2)=C(O)C(=O)N1CCCNCCCCNC (stereo not shown) [Compound 8]
MIC [1]: 0.25 mg/L (≈ 0.605 µM)
MIC ([2]; 29213, read-out: MIC (S. aureus 29213)): 0.25 to 0.5 mg/L (≈ 0.605 to 1.21 µM)
MIC ([2]; ATCC 29213 / MRSA, ATCC 29213 MRSA, the 4th table, read-out: MIC): 1 mg/L (≈ 2.42 µM)
MIC ([2]; ATCC 29213 / MRSA, ATCC 29213 MRSA, the 5th table, read-out: MIC): 1 mg/L (≈ 2.42 µM)
MIC [3]: 0.5 mg/L (≈ 1.21 µM)
MIC [4]: 2 mg/L (≈ 4.84 µM)
MIC ([5]; NRS 1 / VRSA, NRS-1 (VRSA), the 3rd table): 4 mg/L (≈ 9.67 µM)
MIC ([5]; NRS 1 / VRSA, NRS-1 VRSA, the 5th table): 4 mg/L (≈ 9.67 µM)
MIC ([5]; NRS 2 / VRSA, NRS-2 VRSA, the 5th table): 2 mg/L (≈ 4.84 µM)
MIC ([5]; VRSA, VRS-1 (VRSA), the 3rd table): 32 mg/L (≈ 77.4 µM)
MIC ([5]; VRSA, VRS-1 VRSA, the 5th table): 32 mg/L (≈ 77.4 µM)
MIC ([5]; VRSA, VRS-2 (VRSA), the 3rd table): 8 mg/L (≈ 19.3 µM)
MIC ([5]; VRSA, VRS-2 VRSA, the 5th table): 8 mg/L (≈ 19.3 µM)
MIC ([5]; VRSA, VRS-3a VRSA, the 5th table): 4 mg/L (≈ 9.67 µM)
MIC ([5]; VRSA, VRS-3b VRSA, the 5th table): > 64 mg/L
MIC ([5]; VRSA, VRS-4 (VRSA), the 3rd table): 16 mg/L (≈ 38.7 µM)
MIC ([5]; VRSA, VRS-4 VRSA, the 5th table): 16 mg/L (≈ 38.7 µM)
MIC ([5]; VRSA, VRS-5 VRSA, the 5th table): 32 mg/L (≈ 77.4 µM)
MIC ([5]; VRSA, VRS-6 VRSA, the 5th table): 32 mg/L (≈ 77.4 µM)
MIC ([5]; VRSA, VRS-7 VRSA, the 5th table): 32 mg/L (≈ 77.4 µM)
MIC ([5]; VRSA, VRS-8 VRSA, the 5th table): 64 mg/L (≈ 155 µM)
MIC ([5]; VRSA, VRS-9 VRSA, the 5th table): 64 mg/L (≈ 155 µM)
MIC ([5]; VRSA, VRS-10 VRSA, the 5th table): 32 mg/L (≈ 77.4 µM)
MIC ([5]; VRSA, VRS-11a VRSA, the 5th table): 64 mg/L (≈ 155 µM)
MIC ([5]; VRSA, VRS-11b VRSA, the 5th table): 64 mg/L (≈ 155 µM)
MIC ([6]; 1593 (VRE), the 3rd table): 32 mg/L (≈ 77.4 µM)
MIC ([6]; 1593 VRE, the 4th table): 32 mg/L (≈ 77.4 µM)
MIC ([6]; 1751 (VRE), the 3rd table): 16 mg/L (≈ 38.7 µM)
MIC ([6]; 1751 VRE, the 6th table): 16 mg/L (≈ 38.7 µM)
MIC ([6]; 1772 VRE, the 6th table): 32 mg/L (≈ 77.4 µM)
MIC ([6]; 1946 VRE, the 6th table): 32 mg/L (≈ 77.4 µM)
MIC ([6]; 2059 VRE, the 6th table): 32 mg/L (≈ 77.4 µM)
MIC ([6]; 2431 (VRE), the 3rd table): 32 mg/L (≈ 77.4 µM)
MIC ([6]; 2431 VRE, the 6th table): 32 mg/L (≈ 77.4 µM)
MIC ([6]; 2574 VRE, the 6th table): 32 mg/L (≈ 77.4 µM)
MIC ([6]; 3053 VRE, the 6th table): 32 mg/L (≈ 77.4 µM)
MIC ([6]; 3183 (VRE), the 3rd table): 16 mg/L (≈ 38.7 µM)
MIC ([6]; 3183 VRE, the 6th table): 16 mg/L (≈ 38.7 µM)
MIC ([6]; 3190 VRE, the 6th table): 32 mg/L (≈ 77.4 µM)
MIC ([6]; 3191 VRE, the 6th table): 32 mg/L (≈ 77.4 µM)
MIC ([6]; 3222 (VRE, the 3rd table)): 16 mg/L (≈ 38.7 µM)
MIC ([6]; 3222 VRE, the 6th table): 16 mg/L (≈ 38.7 µM)
MIC ([6]; 3235 VRE, the 6th table): 16 mg/L (≈ 38.7 µM)
MIC ([6]; 3239 VRE, the 6th table): 32 mg/L (≈ 77.4 µM)
MIC ([6]; 3241 VRE, the 6th table): 32 mg/L (≈ 77.4 µM)
MIC ([6]; 3623 VRE, the 6th table): 32 mg/L (≈ 77.4 µM)
MIC ([7]; 6215 MRSA): 1 mg/L (≈ 2.42 µM)
MIC ([7]; 6217 MRSA): 0.5 mg/L (≈ 1.21 µM)
MIC ([7]; 6218 MRSA): 1 mg/L (≈ 2.42 µM)
MIC ([7]; 6220 MRSA): 1 mg/L (≈ 2.42 µM)
MIC ([7]; 6231 MRSA): 0.5 mg/L (≈ 1.21 µM)
MIC ([7]; AR-978 MRSA): 1 mg/L (≈ 2.42 µM)
MIC ([7]; AR-979 MRSA): 0.5 mg/L (≈ 1.21 µM)
MIC ([7]; AR-993 MRSA): 1 mg/L (≈ 2.42 µM)
MIC ([7]; AR-997 MRSA): 1 mg/L (≈ 2.42 µM)
MIC ([8]; VGP16-94 MSSA): 0.5 mg/L (≈ 1.21 µM)
MIC ([8]; VGP16-95 MSSA): 1 mg/L (≈ 2.42 µM)
MIC ([8]; VGP16-96 MSSA): 0.5 mg/L (≈ 1.21 µM)
MIC ([8]; VGP16-97 MSSA): 0.5 mg/L (≈ 1.21 µM)
MIC ([8]; VGP16-98 MSSA): 0.5 mg/L (≈ 1.21 µM)
MIC ([8]; VGP16-99 MSSA): 1 mg/L (≈ 2.42 µM)
